≈ marks a conversion by molar mass, not a printed value. Like-named read-outs stand apart in the source and are kept apart here.
Tests used:
mice = assay: acute toxicity, intravenous injection in mice; type: in vivo
Text: (§1) Therefore, the new compounds of this invention are useful in therapeutic treatment of infections by various gram-negative and gram-positive bacteria, including the resistant bacterial strains. […] Accordingly, the low toxicity of the above new compounds of general formula (I) according to this invention is note-worthy, and the low toxicity of the new compounds of this invention with retaining the antibacterial activity substantially as high as that of the above-described known drugs will facilitate the clinical use of the new compounds, fulfilling the modern demand for providing efficient and less toxic drugs.

[1] = tested on: Staphylococcus aureus 209P; assay: MIC, standard serial dilution on nutrient agar; type: cell-based
[2] = tested on: Staphylococcus aureus APOI; assay: MIC, standard serial dilution on nutrient agar; type: cell-based
[3] = tested on: Staphylococcus aureus MS 9610; assay: MIC, standard serial dilution on nutrient agar; type: cell-based; conditions: Staphylococcus aureus, MS9610, 18 h
[4] = tested on: Staphylococcus aureus MS 9883; assay: MIC, standard serial dilution on nutrient agar; type: cell-based
[5] = tested on: Staphylococcus epidermides 109; assay: MIC, standard serial dilution on nutrient agar; type: cell-based; conditions: Staphylococcus, 109, 18 h
Sarcina lutea PCI 1001 = assay: MIC, standard serial dilution on nutrient agar; type: cell-based; conditions: Micrococcus luteus
[6] = tested on: Klebsiella pneumoniae 22 #3038; assay: MIC, standard serial dilution on nutrient agar; type: cell-based
Escherichia coli K-12 = assay: MIC, standard serial dilution on nutrient agar; type: cell-based; conditions: K12, 37° C., 18 hours
[7] = tested on: Escherichia coli K-12 ML 1629; assay: MIC, standard serial dilution on nutrient agar; type: cell-based; conditions: K12ML1629, 37° C., 18 hours
[8] = tested on: Pseudomonas aeruginosa A3; assay: MIC, standard serial dilution on nutrient agar; type: cell-based
Klebsiella THO = assay: MIC, standard serial dilution on nutrient agar; type: cell-based; conditions: Klebsiella, 18 h
Klebsiella HOU = assay: MIC, standard serial dilution on nutrient agar; type: cell-based
Klebsiella BRIA = assay: MIC, standard serial dilution on nutrient agar; type: cell-based; conditions: Klebsiella, 18 h
Serratia CAT = assay: MIC, standard serial dilution on nutrient agar; type: cell-based
Serratia BOT = assay: MIC, standard serial dilution on nutrient agar; type: cell-based; conditions: Serratia, 18 h
Serratia 7 = assay: MIC, standard serial dilution on nutrient agar; type: cell-based
Providencia 19 = assay: MIC, standard serial dilution on nutrient agar; type: cell-based
Providencia ZAO = assay: MIC, standard serial dilution on nutrient agar; type: cell-based
Providencia Pv 37 = assay: MIC, standard serial dilution on nutrient agar; type: cell-based; conditions: PV37, 37° C., 18 hours
Proteus vulgaris BAC = assay: MIC, standard serial dilution on nutrient agar; type: cell-based
Proteus rettgeri AUB = assay: MIC, standard serial dilution on nutrient agar; type: cell-based; conditions: Providencia rettgeri
Enterobacter 666 = assay: MIC, standard serial dilution on nutrient agar; type: cell-based; conditions: 37° C., 18 hours
Enterobacter HAU = assay: MIC, standard serial dilution on nutrient agar; type: cell-based
Erwinia 7-22 = assay: MIC, standard serial dilution on nutrient agar; type: cell-based; conditions: 722, 37° C., 18 hours
Pyocyanique = assay: MIC, standard serial dilution on nutrient agar; type: cell-based
resistant bacteria [9] = conditions: in words, from Table 1
Method: The minimum inhibitory concentrations (mcg/ml) of the new compounds of this invention against various microorganisms were determined according to a standard serial dilution method using nutrient agar incubation medium at 37° C., the estimation being made after 18 hours incubation. For comparison purpose, the MIC. of kanamycin A, amikacin and dibekacin was also determined under the same test conditions.

[10] = acute toxicity, intravenous injection in mice; type: in vivo; conditions: mouse, in vivo
Text: as §1

resistant bacteria [11] = conditions: in words, background art; cited from earlier work
[12] = Staphylococcus aureus, 209P, 18 h
[13] = Enterobacter HAU, nutrient agar, 37° C., 18 hours, read-out: MIC.
[14] = Pseudomonas aeruginosa, A3, 18 h

Q: For gentamicin, which “LD50 value (acute toxicity)” value (mice) is on record?
A: 80 to 120 mg/kg

Q: For `NCCC(O)C(=O)NC1CC(N)C(OC2OC(CN)CCC2O)C(O)C1OC1OC(CO)C(O)C(N)C1O` [Compound No. 2, 1-N-((S)-2-hydroxy-4-aminobutyryl)-3',4'-dideoxykanamycin A], which MIC [1, 12] is on record?
A: 1.56 µg/mL (≈ 2.82 µM)

Q: What about the MIC ([2]; Staphylococcus aureus, 18 h) of the same molecule?
A: 0.78 µg/mL (≈ 1.41 µM)

Q: What about the MIC [3] of the same molecule?
A: 1.56 µg/mL (≈ 2.82 µM)

Q: What about the MIC ([4]; MS9883, Staphylococcus aureus MS 9883, nutrient agar, 37° C., 18 hours, read-out: MIC.) of the same molecule?
A: 3.12 µg/mL (≈ 5.64 µM)

Q: And the MIC [5]?
A: 0.78 µg/mL (≈ 1.41 µM)

Q: What about the MIC (Sarcina lutea PCI 1001; PCI1001, Sarcina lutea PCI 1001, nutrient agar, 37° C., 18 hours, read-out: MIC.) of the same molecule?
A: 3.12 µg/mL (≈ 5.64 µM)

Q: And the MIC ([6]; Klebsiella pneumoniae 22 #3038, nutrient agar, 37° C., 18 hours, read-out: MIC.)?
A: 3.12 µg/mL (≈ 5.64 µM)

Q: What about the MIC (Escherichia coli K-12) of the same molecule?
A: 1.56 µg/mL (≈ 2.82 µM)

Q: And the MIC [7]?
A: 1.56 µg/mL (≈ 2.82 µM)

Q: What about the MIC ([8]; Pseudomonas aeruginosa A3, nutrient agar, 37° C., 18 hours, read-out: MIC.) of the same molecule?
A: 3.12 µg/mL (≈ 5.64 µM)

Q: And the MIC (Klebsiella THO)?
A: 1.56 µg/mL (≈ 2.82 µM)

Q: And the MIC (Klebsiella HOU; Klebsiella HOU, nutrient agar, 37° C., 18 hours, read-out: MIC.)?
A: 3.12 µg/mL (≈ 5.64 µM)

Q: And the MIC (Klebsiella BRIA)?
A: 1.56 µg/mL (≈ 2.82 µM)

Q: What about the MIC (Serratia CAT; Serratia, 18 h) of the same molecule?
A: 6.25 µg/mL (≈ 11.3 µM)

Q: What about the MIC (Serratia BOT) of the same molecule?
A: 6.25 µg/mL (≈ 11.3 µM)

Q: And the MIC (Serratia 7; Serratia 7, nutrient agar, 37° C., 18 hours, read-out: MIC.)?
A: 3.12 µg/mL (≈ 5.64 µM)

Q: What about the MIC (Providencia 19; Providencia 19, nutrient agar, 37° C., 18 hours, read-out: MIC.) of the same molecule?
A: 3.12 µg/mL (≈ 5.64 µM)

Q: What about the MIC (Providencia ZAO; Providencia, 18 h) of the same molecule?
A: 6.25 µg/mL (≈ 11.3 µM)

Q: What about the MIC (Providencia Pv 37) of the same molecule?
A: 6.25 µg/mL (≈ 11.3 µM)

Q: And the MIC (Proteus vulgaris BAC; Proteus vulgaris, 18 h)?
A: 1.56 µg/mL (≈ 2.82 µM)

Q: What about the MIC (Proteus rettgeri AUB; Proteus rettgeri AUB, nutrient agar, 37° C., 18 hours, read-out: MIC.) of the same molecule?
A: 3.12 µg/mL (≈ 5.64 µM)

Q: What about the MIC (Enterobacter 666) of the same molecule?
A: 0.78 µg/mL (≈ 1.41 µM)

Q: And the MIC (Enterobacter HAU; [13])?
A: 12.5 µg/mL (≈ 22.6 µM)

Q: And the MIC (Erwinia 7-22)?
A: 0.78 µg/mL (≈ 1.41 µM)

Q: What about the MIC (Pyocyanique; Pyocyanique, nutrient agar, 37° C., 18 hours, read-out: MIC.) of the same molecule?
A: 12.5 µg/mL (≈ 22.6 µM)

Q: What about the “antibacterial activity against various resistant bacteria” value (resistant bacteria [9]) of the same molecule?
A: higher antibacterial activity against the various resistant bacteria than amikacin

Q: For `NCC1CCC(O)C(OC2C(N)CC(N)C(OC3OC(CO)C(O)C(N)C3O)C2O)O1` (stereo not drawn) [Compound No. 1, 3',4'-dideoxykanamycin A], which MIC ([1]; Staphylococcus aureus 209P, nutrient agar, 37° C., 18 hours, read-out: MIC.) is on record?
A: 3.12 µg/mL (≈ 6.89 µM)

Q: What about the MIC ([2]; Staphylococcus aureus APOI, nutrient agar, 37° C., 18 hours, read-out: MIC.) of the same molecule?
A: 3.12 µg/mL (≈ 6.89 µM)

Q: And the MIC [3]?
A: 6.25 µg/mL (≈ 13.8 µM)

Q: What about the MIC ([4]; Staphylococcus aureus, MS9883, 18 h) of the same molecule?
A: 6.25 µg/mL (≈ 13.8 µM)

Q: What about the MIC [5] of the same molecule?
A: 6.25 µg/mL (≈ 13.8 µM)

Q: And the MIC (Sarcina lutea PCI 1001; PCI1001, 18 h)?
A: 12.5 µg/mL (≈ 27.6 µM)

Q: What about the MIC ([6]; Klebsiella pneumoniae, 18 h) of the same molecule?
A: > 100 µg/mL

Q: What about the MIC (Escherichia coli K-12) of the same molecule?
A: 6.25 µg/mL (≈ 13.8 µM)

Q: What about the MIC [7] of the same molecule?
A: 6.25 µg/mL (≈ 13.8 µM)

Q: And the MIC [8, 14]?
A: 6.25 µg/mL (≈ 13.8 µM)

Q: What about the MIC (Klebsiella THO) of the same molecule?
A: 6.25 µg/mL (≈ 13.8 µM)

Q: What about the MIC (Klebsiella HOU; Klebsiella, 18 h) of the same molecule?
A: > 100 µg/mL

Q: And the MIC (Klebsiella BRIA)?
A: > 100 µg/mL

Q: What about the MIC (Serratia CAT; Serratia CAT, nutrient agar, 37° C., 18 hours, read-out: MIC.) of the same molecule?
A: 12.5 µg/mL (≈ 27.6 µM)

Q: And the MIC (Serratia BOT)?
A: 50 µg/mL (≈ 110 µM)

Q: And the MIC (Serratia 7; Serratia, 7, 18 h)?
A: > 100 µg/mL

Q: And the MIC (Providencia 19; Providencia, 19, 18 h)?
A: 100 µg/mL (≈ 221 µM)

Q: And the MIC (Providencia ZAO; Providencia ZAO, nutrient agar, 37° C., 18 hours, read-out: MIC.)?
A: 12.5 µg/mL (≈ 27.6 µM)

Q: What about the MIC (Providencia Pv 37) of the same molecule?
A: > 100 µg/mL

Q: What about the MIC (Proteus vulgaris BAC; Proteus vulgaris BAC, nutrient agar, 37° C., 18 hours, read-out: MIC.) of the same molecule?
A: 3.12 µg/mL (≈ 6.89 µM)

Q: And the MIC (Proteus rettgeri AUB; 18 h)?
A: > 100 µg/mL

Q: What about the MIC (Enterobacter 666) of the same molecule?
A: 100 µg/mL (≈ 221 µM)

Q: What about the MIC (Enterobacter HAU; [13]) of the same molecule?
A: 12.5 µg/mL (≈ 27.6 µM)

Q: And the MIC (Erwinia 7-22)?
A: > 100 µg/mL

Q: And the MIC (Pyocyanique; 18 h)?
A: > 100 µg/mL

Q: What about the “antibacterial activity against various resistant bacteria” value (resistant bacteria [9]) of the same molecule?
A: remarkably higher antibacterial activity against various resistant bacteria than the parent kanamycin A

Q: With `NC[C@@H]1CC[C@@H](N)[C@@H](O[C@H]2[C@H](O)[C@@H](O[C@H]3O[C@H](CO)[C@@H](O)[C@H](N)[C@H]3O)[C@H](N)C[C@@H]2N)O1` [Dibekacin, 3',4'-dideoxykanamycin B] as the molecule, how does the MIC [1, 12] read?
A: 0.78 µg/mL (≈ 1.73 µM)

Q: And the MIC ([2]; Staphylococcus aureus, 18 h)?
A: 0.78 µg/mL (≈ 1.73 µM)

Q: What about the MIC [5] of the same molecule?
A: 0.78 µg/mL (≈ 1.73 µM)

Q: What about the MIC (Sarcina lutea PCI 1001; PCI1001, 18 h) of the same molecule?
A: 25 µg/mL (≈ 55.4 µM)

Q: And the MIC ([6]; Klebsiella pneumoniae, 18 h)?
A: > 100 µg/mL

Q: And the MIC (Escherichia coli K-12)?
A: 1.56 µg/mL (≈ 3.45 µM)

Q: And the MIC [7]?
A: 1.56 µg/mL (≈ 3.45 µM)

Q: What about the MIC [8, 14] of the same molecule?
A: 0.78 µg/mL (≈ 1.73 µM)

Q: What about the MIC (Klebsiella THO) of the same molecule?
A: 1.56 µg/mL (≈ 3.45 µM)

Q: And the MIC (Klebsiella HOU; Klebsiella, 18 h)?
A: > 100 µg/mL

Q: What about the MIC (Klebsiella BRIA) of the same molecule?
A: > 100 µg/mL

Q: What about the MIC (Serratia CAT; Serratia, 18 h) of the same molecule?
A: 6.25 µg/mL (≈ 13.8 µM)

Q: What about the MIC (Serratia BOT) of the same molecule?
A: 25 µg/mL (≈ 55.4 µM)

Q: What about the MIC (Serratia 7; Serratia, 7, 18 h) of the same molecule?
A: > 100 µg/mL

Q: What about the MIC (Providencia 19; Providencia, 19, 18 h) of the same molecule?
A: > 100 µg/mL

Q: What about the MIC (Providencia ZAO; Providencia, 18 h) of the same molecule?
A: > 100 µg/mL

Q: And the MIC (Providencia Pv 37)?
A: > 100 µg/mL

Q: What about the MIC (Proteus vulgaris BAC; Proteus vulgaris, 18 h) of the same molecule?
A: 12.5 µg/mL (≈ 27.7 µM)

Q: What about the MIC (Proteus rettgeri AUB; 18 h) of the same molecule?
A: 100 µg/mL (≈ 221 µM)

Q: And the MIC (Enterobacter 666)?
A: > 100 µg/mL

Q: What about the MIC (Enterobacter HAU; Enterobacter, 18 h) of the same molecule?
A: > 100 µg/mL

Q: And the MIC (Erwinia 7-22)?
A: > 100 µg/mL

Q: What about the MIC (Pyocyanique; 18 h) of the same molecule?
A: 6.25 µg/mL (≈ 13.8 µM)

Q: And the LD50 [10]?
A: 80 to 120 mg/kg

Q: And the “activity against resistant bacteria” value (resistant bacteria [11])?
A: remarkably active against a wide variety of resistant bacteria
